Experimental data published in patent US11633370B2, “Use of scavengers of reactive gamma-ketoaldehydes to extend cell lifespan and healthspan” (Vanderbilt University, priority 2016, dated 2023).

Experiments:
[1] = tested on: VC199 [sir-2.1(ok434)]; test: Lipofuscin autofluorescence measurement, VC199; type: in vivo, C. elegans; conditions: increasing concentrations of SA, day 15; p=0.50
Experimental: As with the N2 strain, the present inventors treated VC199 nematodes with increasing concentrations of SA and assessed the age-dependent accumulation of autofluorescent lipofuscin granules and decrease in pharyngeal pumping rate.
Synchronized late L4/early young adult worms were plated on FUDR containing SA-OP50-seeded NGM plates and worms were maintained at 20° C. Every fifth day, 10-15 worms were mounted onto 2% agar pads and anesthetized with 3 mM levamisole in DMSO. Images were taken at 250-ms exposure under a DAPI filter using an epifluorescence microscope (Nikon Eclipse 80i) equipped with a Lambda LS Xenon lamp (Sutter Instrument Company) and Nikon Plan Fluor 20× dry and Nikon Plan Apo 60×1.3 oil objectives. The fluorescence was calculated using ImageJ software.

[2] = tested on: N2 WT C. elegans; test: F3-IsoP quantification by GC/MS, N2; type: in vivo; conditions: Day 1 of adulthood until Day 15
Text: One of the major stimuli for activation of sirtuins is oxidative stress. […] Indeed, the mitochondrial antioxidant manganese superoxide dismutase (MnSOD) has been identified as one of the major protein targets that is deacetylated by sirtuin isoforms, with deacetylation enhancing the enzymatic activity of MnSOD [60]. If SA indeed preserves SIR-2.1 enzymatic function in vivo, the present inventors hypothesized that SA treatment would dose-dependently decrease biomarkers of oxidant injury in a SIR-2.1-dependent manner. To quantify oxidant injury, the present inventors measured F3-isoprostanes (F3-IsoPs). […] To further characterize SA's ability to preserve SIR-2.1 function, the present inventors assessed acetylation of MnSOD at Lys 122.
F3-Isoprostanes were quantified from SA-treated worms a gas-chromatography-negative ion chemical ionization-mass spectrometry (GC-NICI-MS) approach. […]
Samples were spiked with 248 pg of deuterated internal standards, [^2H4]-15-F2t-IsoP, quantified and calibrated by the method of Milne et al. and acidified to pH<3 with HCl in preparation for further Separation Phase Extraction (SPE). […]
Eluates were dried under nitrogen and F3—IsoPs and resuspended in MeOH for separation by Thin Layer Chromatography (TLC). […] Deuterated F2-IsoP standard was measured at m/z 573. F3—IsoP was measured at m/z 567. […]

[3] = tested on: N2 WT C. elegans; test: Real-time RT-PCR (TaqMan) gene expression, N2; type: in vivo; conditions: p<0.05
Text: First, to validate the microarray results, the present inventors performed real-time RT-PCR on four genes, siah-1, sma-4, F13D12.6, and ets-7 (FIG. 6B). […] Messenger RNA levels for siah-1 and sma-4 were decreased by nearly 25%, as well as F13D12.6 and ets-7 were increased by nearly 25% by SA administration (p<0.05). Pathway Analysis using Gene Ontology (GO) with WEB-based Gene SeT Analysis Toolkit (WEBGESTALT <http://bioinfo.vanderbilt.edu/webgestalt/>) highlighted the metabolic process, lipid metabolic process, proteolysis pathways among many others as being altered favorably by the administration of SA (see Supplemental Data). From the array data confirmed by RT-PCR, the present inventors identified the ETS class transcription factor ETS-7 as a protein of interest. ETS factors are known to be involved in regulating lipid metabolism and regulate lifespan in both Drosophila melanogaster and C. elegans. To investigate the role of ETS-7 in regulating lifespan downstream from salicylamine, SA was administered to the ets-7 gene knock-out strain, RB981 [F19F10.5(ok888) V]). […] The present inventors originally hypothesized that upregulation of ets-7 depends on SIR-2.1, which could result in enhanced longevity. In order to test this, the present inventors carried out real-time RT-PCR quantification of ets-7 in non-functional SIR-2.1 mutant nematodes treated with increasing doses of SA (FIG. 6E).
Total RNA was isolated via the Trizol method, as described previously. Following isolation, 2 μg total RNA was used for cDNA synthesis using the High Capacity cDNA Reverse Transcription Kit (Life Technologies), per manufacturer's instructions. Quantitative real time PCR (Bio-Rad) was conducted using TaqMan Gene Expression Assay Probes (Life Technologies) for each gene. Amplified products was normalized to housekeeping gene, ama-1 (RNA polymerase II) after determining fold difference using the comparative 2^−ΔΔct method. The following probes were used: ama-1 (Assay ID: Ce2462269_m1), ets-7 (Ce02477624_g1), F13D12.6 (Ce02439540_m1), siah-1 (Assay ID: Ce02462269_m1), and sma-4 (Assay ID: Ce202447346_1).

NCc1ccccc1O [SA, salicylamine]
accumulation of lipofuscin [1]: none of the doses of SA used were able to decrease the accumulation of lipofuscin | decrease in F3-IsoP production ([2]; 100 μM SA, p<0.01): 29% | decrease in F3-IsoP levels ([2]; 500 μM SA, p<0.005): 44% | increase in ets-7 messenger RNA level ([3]; 500 μM SA, Day 15 WT N2): 32% | increase in ets-7 messenger RNA level ([3]; Day 15 WT N2, SA administration): 25% | decrease in siah-1 messenger RNA level ([3]; Day 15 WT N2): ~25% | decrease in sma-4 messenger RNA level ([3]; Day 15 WT N2): ~25% | increase in F13D12.6 messenger RNA level ([3]; Day 15 WT N2): ~25%
